Assay results: US10821115B2, “Compounds that inhibit Mcl-1 protein” (priority 2017, dated 2020)
pIC50: −log10 of the molar value. Like-named read-outs stand apart in the source and are kept apart here.

Columns and labels:
[1] = target: recombinant human Mcl-1 (residues 171-327) / Bim interaction (Homo sapiens (Human), UniProt Q07820); assay: biochemical; assay type: binding; settings: read-out: Mcl-1 HTRF IC50
[2] = test system: human multiple myeloma cell line, OPM-2; assay: Cell viability assay (OPM-2 10 FBS), CellTiter-Glo; assay type: cell-based
Outline: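 Steps: plate cells at 3000/well in 10% FBS growth medium, add serially diluted compound, incubate 16 h at 37 °C with 5% CO2, add detection reagent and read luminescence after 25 min. A 4-parameter logistic model gives IC50.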

[3] = TR-FRET, Mcl-1(171-327) / biotin-Bim (51-76)
[4] = read-out: OPM-2 10% FBS IC50 IP, OPM-2 cells, 10% FBS, 16 h, CellTiter-Glo
[5] = Homo sapiens, OPM-2, 16 h, read-out: OPM-2 10% FBS IC50 IP, OPM-2 cells, 10% FBS, 16 h, CellTiter-Glo
[6] = 0.1 nM Mcl-1(171-327), 0.05 nM biotin-Bim (51-76)
[7] = Homo sapiens, OPM-2, 16 h, read-out: OPM-2 10% FBS IC50 IP, OPM-2 cells, 10% FBS, 16 h incubation
[8] = read-out: OPM-2 10% FBS IC50 IP, OPM-2 cells, 10% FBS, 16 h incubation

recombinant human Mcl-1 (residues 171-327) / Bim interaction, sequence (Q07820 171-327): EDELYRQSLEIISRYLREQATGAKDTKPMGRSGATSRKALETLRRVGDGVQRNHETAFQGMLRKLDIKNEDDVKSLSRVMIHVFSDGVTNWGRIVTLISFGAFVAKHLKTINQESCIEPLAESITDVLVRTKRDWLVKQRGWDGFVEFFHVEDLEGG

Compound | pIC50 [1, 3] | pIC50 [2, 5] | also measured
C[C@@H]1[C@@H](C)CCC[C@@](O)(C2CCN(C)CC2)[C@@H]2CC[C@H]2CN2C[C@@]3(CCCc4cc(Cl)ccc43)COc3ccc(cc32)C(=O)NS1(=O)=O [Example 100386, (1S,3′R,6′R,7′R,11′S,12′R)-6-chloro-7′-hydroxy-11′,12′-dimethyl-7′-(1-methyl-4-piperidinyl)-3,4-dihydro-2H,15′H-spiro[naphthalene-1,22′-[20]oxa[13]thia[1,14]diazatetracyclo [14.7.2.0~3,6~.0~19,24~]pentacosa[16,18,24]trien]-15′-one 13′,13′-dioxide] | 8.40 | – | pIC50 [2, 4]: 5.14
CO[C@]1(C#CCCO)/C=C/C[C@H](C)[C@@H](C)S(=O)(=O)NC(=O)c2ccc3c(c2)N(C[C@@H]2CC[C@H]21)C[C@@]1(CCCc2cc(Cl)ccc21)CO3 [Example 100426, (1S,3′R,6′R,7′R,8′E,11′S,12′R)-6-chloro-7′-(4-hydroxy-1-butyn-1-yl)-7′-methoxy-11′,12′-dimethyl-3,4-dihydro-2H,15′H-spiro[naphthalene-1,22′-[20]oxa[13]thia[1,14]diazatetracyclo [14.7.2.0~3,6~.0~19,24~]pentacosa[8,16,18,24]tetraen]-15′-one 13′,13′-dioxide] | 9.71 | 6.96 | –
C[C@H](C(=O)N(C)C)[C@]1(O)/C=C/C[C@H](C)[C@@H](C)S(=O)(=O)NC(=O)c2ccc3c(c2)N(C[C@@H]2CC[C@H]21)C[C@@]1(CCCc2cc(Cl)ccc21)CO3 [Example 100125, (2S)-2-((1S,3′R,6′R,7′S,8′E,11′S,12′R)-6-chloro-7′-hydroxy-11′,12′-dimethyl-13′,13′-dioxido-15′-oxo-3,4-dihydro-2H-spiro[naphthalene-1,22′-[20]oxa[13]thia[1,14]diazatetracyclo [14.7.2.0~3,6~.0~19,24~]pentacosa[8,16,18,24]tetraen]-7′-yl)-N,N-dimethylpropanamide] | 9.37 | 6.26 | –
CC#C[C@]1(OC)CCC[C@H](C)[C@@H](C)S(=O)(=O)NC(=O)c2ccc3c(c2)N(C[C@@H]2CC[C@H]21)C[C@@]1(CCCc2cc(Cl)ccc21)CO3 [Example 100332, (1S,3′R,6′R,7′S,11′S,12′R)-6-chloro-7′-methoxy-11′,12′-dimethyl-7′-(1-propyn-1-yl)-3,4-dihydro-2H,15′H-spiro[naphthalene-1,22′-[20]oxa[13]thia[1,14]diazatetracyclo [14.7.2.0~3,6~.0~19,24~]pentacosa[16,18,24]trien]-15′-one 13′,13′-dioxide] | 8.19 | 5.37 | –
COCC[C@@H]1[C@@H](C)C/C=C/[C@](CN2CCN(C(C)(C)COC)CC2)(OC)[C@@H]2CC[C@H]2CN2C[C@@]3(CCCc4cc(Cl)ccc43)COc3ccc(nc32)C(=O)NS1(=O)=O [Example 27, (1S,3′R,6′R,7′S,8′E,11′S,12′R)-6-chloro-7′-methoxy-7′-((4-(2-methoxy-1,1-dimethylethyl)-1-piperazinyl)methyl)-12′-(2-methoxyethyl)-11′-methyl-3,4-dihydro-2H,15′H-spiro[naphthalene-1,22′-[20]oxa[13]thia[1,14,25]triazatetracyclo [14.7.2.0~3,6~.0~19,24~]pentacosa[8,16,18,24]tetraen]-15′-one 13′,13′-dioxide] | – | – | pIC50 [1, 6]: 10.02; pIC50 [2, 7]: 7.54
CC[C@]1(CO)/C=C/C[C@H](C)[C@@H](C)S(=O)(=O)NC(=O)c2ccc3c(c2)N(C[C@@H]2CC[C@H]21)C[C@@]1(CCCc2cc(Cl)ccc21)CO3 (single isomer, unassigned) [Example 100605] | 8.49 | 5.10 | –
C[C@@H]1[C@@H](C)CCC[C@@](O)(C[C@H]2CCCN(C)C2)[C@@H]2CC[C@H]2CN2C[C@@]3(CCCc4cc(Cl)ccc43)COc3ccc(cc32)C(=O)NS1(=O)=O (single isomer, unassigned) [Example 100398] | 9.21 | 6.34 | –
COC[C@@]1(O)CCC[C@H](C)[C@@H](C)S(=O)(=O)NC(=O)c2ccc3c(c2)N(C[C@@H]2CC[C@H]21)C[C@@]1(CCCc2cc(Cl)ccc21)CO3 [Example 100150, (1S,3′R,6′R,7′R,11′S,12′R)-6-chloro-7′-hydroxy-7′-(methoxymethyl)-11′,12′-dimethyl-3,4-dihydro-2H,15′H-spiro[naphthalene-1,22′-[20]oxa[13]thia[1,14]diazatetracyclo [14.7.2.0~3,6~.0~19,24~]pentacosa[16,18,24]trien]-15′-one 13′,13′-dioxide] | 8.77 | 5.84 | –
C[C@@H]1[C@@H](C)CCC[C@](O)(C[C@@H]2CCCN(C)C2)[C@@H]2CC[C@H]2CN2C[C@@]3(CCCc4cc(Cl)ccc43)COc3ccc(cc32)C(=O)NS1(=O)=O (single isomer, unassigned) [Example 100400] | 9.08 | 5.88 | –
C[C@@H]1[C@@H](C)C/C=C/C(O)([C@H]2OCCN(C)C2=O)[C@@H]2CC[C@H]2CN2C[C@@]3(CCCc4cc(Cl)ccc43)COc3ccc(cc32)C(=O)NS1(=O)=O (single isomer, unassigned) [Example 100019] | 9.74 | 7.24 | –
CO[C@]1(CN2CCN3CCCC[C@@H]3C2)/C=C/C[C@H](C)[C@@H](C[C@H](C)O)S(=O)(=O)NC(=O)c2ccc3c(c2)N(C[C@@H]2CC[C@H]21)C[C@@]1(CCCc2cc(Cl)ccc21)CO3 (single isomer, unassigned) [Example 362] | – | – | pIC50 [1, 6]: 10.21; pIC50 [2, 8]: 7.24
C[C@@H]1[C@@H](C)C/C=C/[C@@](O)(CC(=O)N2CCOCC2)[C@@H]2CC[C@H]2CN2C[C@@]3(CCCc4cc(Cl)ccc43)COc3ccc(cc32)C(=O)NS1(=O)=O [Example 100085, (1S,3′R,6′R,7′S,8′E,11′S,12′R)-6-chloro-7′-hydroxy-11′,12′-dimethyl-7′-(2-(4-morpholinyl)-2-oxoethyl)-3,4-dihydro-2H,15′H-spiro[naphthalene-1,22′-[20]oxa[13]thia[1,14]diazatetracyclo [14.7.2.0~3,6~.0~19,24~]pentacosa[8,16,18,24]tetraen]-15′-one 13′,13′-dioxide] | – | 6.54 | pIC50 [1]: 9.61
C[C@@H]1[C@@H](C)C/C=C/[C@](O)(c2ncccc2F)[C@@H]2CC[C@H]2CN2C[C@@]3(CCCc4cc(Cl)ccc43)COc3ccc(cc32)C(=O)NS1(=O)=O [Example 100385, (1S,3′R,6′R,7′R,8′E,11′S,12′R)-6-chloro-7′-(3-fluoro-2-pyridinyl)-7′-hydroxy-11′,12′-dimethyl-3,4-dihydro-2H,15′H-spiro[naphthalene-1,22′-[20]oxa[13]thia[1,14]diazatetracyclo [14.7.2.0~3,6~.0~19,24~]pentacosa[8,16,18,24]tetraen]-15′-one 13′,13′-dioxide] | 9.84 | 6.84 | –
CO[C@]1(CN2CCN3CCOC[C@@H]3C2)/C=C/C[C@H](C)[C@@H](CC2CCC2)S(=O)(=O)NC(=O)c2ccc3c(c2)N(C[C@@H]2CC[C@H]21)C[C@@]1(CCCc2cc(Cl)ccc21)CO3 [Example 38] | – | – | pIC50 [1, 6]: 9.47; pIC50 [2, 7]: 6.31
CO[C@H](C)[C@]1(OC)/C=C/C[C@H](C)[C@@H](C)S(=O)(=O)NC(=O)c2ccc3c(c2)N(C[C@@H]2CC[C@H]21)C[C@@]1(CCCc2cc(Cl)ccc21)CO3 [Example 100475, (1S,3′R,6′R,7′S,8′E,11′S,12′R)-6-chloro-7′-methoxy-7′-((1R)-1-methoxyethyl)-11′,12′-dimethyl-3,4-dihydro-2H,15′H-spiro[naphthalene-1,22′-[20]oxa[13]thia[1,14]diazatetracyclo [14.7.2.0~3,6~.0~19,24~]pentacosa[8,16,18,24]tetraen]-15′-one 13′,13′-dioxide] | 8.86 | – | pIC50 [2, 4]: 5.57
CO[C@@]1(CCN2CCOCC2)/C=C/C[C@H](C)[C@@H](C)S(=O)(=O)NC(=O)c2ccc3c(c2)N(C[C@@H]2CC[C@H]21)C[C@@]1(CCCc2cc(Cl)ccc21)CO3 [Example 100419, (1S,3′R,6′R,7′S,8′E,11′S,12′R)-6-chloro-7′-methoxy-11′,12′-dimethyl-7′-(2-(4-morpholinyl)ethyl)-3,4-dihydro-2H,15′H-spiro[naphthalene-1,22′-[20]oxa[13]thia[1,14]diazatetracyclo [14.7.2.0~3,6~.0~19,24~]pentacosa[8,16,18,24]tetraen]-15′-one 13′,13′-dioxide] | 9.56 | 6.38 | –
C=CCOC[C@]1(O)/C=C/C[C@H](C)[C@@H](C)S(=O)(=O)NC(=O)c2ccc3c(c2)N(C[C@@H]2CC[C@H]21)C[C@@]1(CCCc2cc(Cl)ccc21)CO3 (single isomer, unassigned) [Example 100496] | 8.57 | 5.30 | –
COCC[C@@H]1[C@@H](C)C/C=C/[C@@](CN2CCN(C)CC2)(OC)[C@@H]2CC[C@H]2CN2C[C@@]3(CCCc4cc(Cl)ccc43)COc3ccc(cc32)C(=O)NS1(=O)=O [Example 178, (1S,3′R,6′R,7′R,8′E,11′S,12′R)-6-chloro-7′-methoxy-12′-(2-methoxyethyl)-11′-methyl-7′-((4-methyl-1-piperazinyl)methyl)-3,4-dihydro-2H,15′H-spiro[naphthalene-1,22′-[20]oxa[13]thia[1,14]diazatetracyclo [14.7.2.0~3,6~.0~19,24~]pentacosa[8,16,18,24]tetraen]-15′-one 13′,13′-dioxide] | – | – | pIC50 [1, 6]: 9.75; pIC50 [2, 7]: 7.15
CO[C@@]1(CN2CCN3CC[C@H](F)C[C@@H]3C2)/C=C/C[C@H](C)[C@@H](C)S(=O)(=O)NC(=O)c2ccc3c(c2)N(C[C@@H]2CC[C@H]21)C[C@@]1(CCCc2cc(Cl)ccc21)CO3 (single isomer, unassigned) [Example 283] | – | – | pIC50 [1, 6]: 9.45; pIC50 [2, 8]: 6.08
